Experimental findings from patent US11654167B2, “Pharmaceutical composition based on bacteriophages against F. nucleatum; use in the treatment of diseases associated with this pathogen” (priority 2016, dated 2023) are described below.

The subject of experiment [1] is F. nucleatum. Kind of experiment: in vivo bacteria count of F. nucleatum in co-infected rats. On the set-up: species or system Sprague Dawley rat. Conditions: chlorhexidine 0.12% local cleaning and/or amoxicillin (50 mg/Kg) in water.
Protocol: An evaluation is performed to determine the effect of these treatments on the microbiological count associated with periodontal destruction in Sprague Dawley rat models inoculated with P. gingivalis and F. nucleatum, the main pathogens of the etiology of periodontal disease.
(§1) Methodology consists in co-infecting rats with P. gingivalis and F. nucleatum, and treating or not treating them with the mixture of bacteriophages Fnpϕ02-14, Fnpϕ11 and Fnnϕ107 at different MOI. The procedure for each stage is described below:
(§2) Finally, on week 10, the sacrifice of the rats of the group is performed. The initial treatment of local cleaning with CHX 0.12% and the local administration of the bacteria mixture is performed under anesthesia for 5-10 sec. with isoflurane gas. The sacrifice of the rats was performed with an anesthesia overdose of Ketamine:Xylazine (2:1).
(§3) The mixture of the three lytic bacteriophages Fnpϕ02-14, Fnpϕ11 and Fnnϕ107, specific for F. nucleatum, is performed, with a concentration of 10^8, 10^10 and 10^8 UFP/mL, respectively. Afterwards, it was kept at 4° C. until it was used.
Each research group is composed by 3 subjects per cage, and there ware a number of 6 subjects per group. […]
For experiment [2], the system named is F. nucleatum. Put plainly: detection of F. nucleatum by PCR in co-infected rats. Format: in vivo, Sprague Dawley rat. Conditions: chlorhexidine 0.12% and/or amoxicillin.
Protocol: as §1, §2, §3
Each research group is composed by 3 subjects per cage, and there ware a number of 6 subjects per group. The research groups are the following: Group 1 (Continuous treatment phage), in which the administration of the mixture of bacteriophages in a multiplicity of infection (MOI) of 0.01 (1 bacteria for 100 phages) is performed, in the same inoculation times as the bacteria mixture (week 2, 4, 6 and 8), for 4 days every time. […]
For experiment [3], the system named is gingival tissue associated with the first molar. Put plainly: histology of gingival tissue (hematoxylin-eosin), inflammatory response. The format is in vivo, Sprague Dawley rat. Conditions: chlorhexidine 0.12% and/or amoxicillin (50 mg/Kg). As for the experimental part: In order to perform the analysis of gingival tissue associated with the first molar once the piece is worn out, this one is fixed in a solution of paraformaldehyde at 10% for 24 hours. Afterwards, the bone is decalcified in an […] solution for 24 hours. The decalcified tissue was soaked in paraffin blocks, in order to be cut afterwards by a microtome in transversal sections for 4μ, in order to be finally stained with the hematoxylin-eosin staining. […] The presence or absence of inflammation in the tissue was examined by using the following parameters: Hematopoietic distribution, presence of vasodilation, thickness of keratinized epithelial tissue, presence of immune cells (lymphocytes, monocytes, polymorph nuclear, etc.), prisoners of inflammatory focus and cell infiltration in keratinized epithelium. In this way, the manifestations of acute or chronic inflammatory response and the normal, incipient, or established inflammatory response were determined.

The test system of another experiment is RANKL and OPG. Put plainly: bone reabsorption indicators RANKL and OPG in plasma by indirect ELISA. Format: in vivo, Sprague Dawley rat. The conditions noted are these: chlorhexidine 0.12% and/or amoxicillin. The procedure:
The determination of bone reabsorption of the different subjects of treatment is performed based on measuring the molecules associated with this type of physiological response. The levels of RANKL and OPG molecules are measured by Enzyme-Linked ImmunoSorbent Assay (ELISA), specifically the ELISA indirect type, performed from a plasma sample. The blood sample was extracted as follows: the rat is deeply anesthetized with ketamine:xylazine, via the intraperitoneal route. The rat is treated with heparin 2 minutes before surgery, also via the intraperitoneal route with 200-300 μL. […]
Prior to the use of plasma, a quantification of proteins (mg/mL) of each sample is performed by the concentrated Bradford protocol (5×). […] Finally, the absorbance is measured at 595 nm in a plate reader (SQ-2800 model spectrophotometer, United Products & Instruments Inc., Dayton, USA). […]
It is mixed and protected from the light. […] Afterwards, in order to stop the reaction, 100 μL of NaOH 3N, in order to finally read the absorbency of each well at 405 nm in an ELISA reader. • In order to obtain the values of concentration for each sample, the Lambert-Beer formula was used: Abs405=ε*d*[mM]; • where ε: extinction coefficient 18.5*10^3 M^−1 cm^−1 and d: length of the well 1 cm. […]
For orientation: An ELISA detects its analyte on a solid surface through an enzyme-linked reagent.

Experiment [4] relates to alveolar bone of the first molar. Put plainly: bone loss of alveolar bone of the first molar. Format: in vivo, Sprague Dawley rat. Conditions: chlorhexidine 0.12% and/or amoxicillin. The procedure: In order to determine bone loss, we measured directly the alveolar bone of the first molar in the hemi sectioned right jaw of each subject. In order to obtain the alveolar bone, the jaw extraction is performed and autoclaved for 20 min. The first cleaning is performed, removing the associated tissue. Afterwards, the bones are soaked in hydrogen peroxide at 3% for all night at room temperature. After this time, the pieces were washed with distilled water in order to eliminate any remainder of adhered tissue; the bone is brushed with toothpaste and finally washed with distilled water. Clean jaws are stained with methylene blue at 1% for 15 seconds, and then washed with distilled water to remove the excess of stain. The pieces are left to dry by air, and it is in this moment when the limit cement-enamel appears in the associated dental piece. The measure is obtained by measuring from the exposed base of the root of the tooth to the cement-enamel limit.

In the case of `CC1(C)S[C@@H]2[C@H](NC(=O)[C@H](N)c3ccc(O)cc3)C(=O)N2[C@H]1C(=O)O` [amoxicillin], the “F. nucleatum count after versus before treatment” value in the experiment on F. nucleatum [1] was “only the count in the post mortem sample decreases”. The “detection of F. nucleatum by PCR, post-treatment versus pre-treatment samples” value with F. nucleatum [2] was “lower count of positive detections”. The “inflammatory response in histological sections” value in experiment [3] is given as “presence of an acute incipient inflammatory response”. For the same compound, the “ratio RANKL/OPG versus control group without treatment” value with RANKL and OPG was “present significant differences”. The “bone loss of alveolar bone versus control group” value in experiment [4] is given as “do not avoid bone loss”.
Regarding `[H]/N=C(\N/C(=N/[H])NCCCCCCNC(=N)NC(=N)Nc1ccc(Cl)cc1)Nc1ccc(Cl)cc1` [chlorhexidine], the “F. nucleatum count after versus before treatment” value in the experiment with F. nucleatum [1] is “tendency to reducing bacteria count”. In addition, the “detection of F. nucleatum by PCR, post-treatment versus pre-treatment samples” value with F. nucleatum [2] is reported as “lower count of positive detections”. Further, the “inflammatory response in histological sections” value in experiment [3] is “presence of an active acute inflammatory response”. For the same compound, the “ratio RANKL/OPG versus control group without treatment” value with RANKL and OPG is given as “do not present significant differences”. Further, the “bone loss of alveolar bone versus control group” value in experiment [4] is on record as “do not avoid bone loss”.
